Test results from patent publication US20260242352A1, “INHIBITION OF SHIP1 AS A THERAPEUTIC STRATEGY FOR THE TREATMENT OF ALZHEIMER'S DISEASE” (The Trustees of Indiana University, priority 2022, published 2026).
Counter-ions that a name gives are not always drawn.

How the values were obtained:
SHIP1 = molecular target: T1, SHIP1 (Homo sapiens, UniProt Q92835); assay: Malachite green enzyme assay; assay type: biochemical; conditions: Table 1; PI(3,4,5)P3-diC8 52 μM, enzyme 10 nM, SHIP1 Ptase-C2, 25° C., pH7.4; geometric mean; read-out: SHIP1 IC50 μM (n)
T1 sequence (Q92835 396-858): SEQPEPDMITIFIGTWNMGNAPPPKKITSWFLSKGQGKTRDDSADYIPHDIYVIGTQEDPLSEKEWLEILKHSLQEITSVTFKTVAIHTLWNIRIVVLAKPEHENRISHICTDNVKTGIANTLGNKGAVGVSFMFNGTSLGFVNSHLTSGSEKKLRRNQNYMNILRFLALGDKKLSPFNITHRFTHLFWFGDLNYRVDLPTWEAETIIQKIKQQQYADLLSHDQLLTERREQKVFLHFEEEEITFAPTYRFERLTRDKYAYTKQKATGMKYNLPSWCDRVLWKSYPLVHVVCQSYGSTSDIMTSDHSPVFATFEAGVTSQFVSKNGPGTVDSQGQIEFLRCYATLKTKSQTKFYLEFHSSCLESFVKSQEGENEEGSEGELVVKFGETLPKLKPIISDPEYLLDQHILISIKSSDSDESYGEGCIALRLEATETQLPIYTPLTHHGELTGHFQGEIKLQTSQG
From the text: The inventors have performed a screen of 50K compounds at the SHIP1 phosphatase, analyzed a publicly available fragment-based screen, and evaluated inhibitors reported in the literature. They utilized the malachite green assay with PtdIns(3,4,5)P3-diC8 and SHIP1 Ptase-C2 to measure inhibitory potency. A Cellular Thermal Shift Assay was used to confirm target engagement in cells. A phosphoAKT assay was used to provide additional evidence of on-target activity. A high-content imaging assay measuring phagocytosis, cell number, and nuclear intensity was implemented using the BV2 and HMC3 cell lines to characterize cellular pharmacology and cytotoxicity. […] Inhibitors predicted to have drug-like properties were subjected to assays measuring solubility, cellular permeability, and mouse microsomal stability. A physiological based pharmacokinetic model was compared to measured exposure in vivo for select compounds upon oral administration in mice.
Malachite Green Enzyme Assay. […] Compounds diluted in DMSO were added to 384-well plates. Enzyme solution was added. After a 20 min incubation period, the reaction was initiated by addition of PI(3,4,5)P3-diC8. Final compound concentrations ranged from 50 nM to 950 μM. Final reaction concentrations for the PI(3,4,5)P3-diC8 substrate and the enzyme were 52 μM and 10 nM respectively. The reaction was quenched after 10 min by adding Malachite BioMol Green (Enzo Lifesciences, PA, USA). Plates were then incubated for 30 min at room temperature. Absorbance (620 nm) was measured using a SpectraMax Me5 Microplate Reader (Molecular Devices, LLC, USA). IC50 values were calculated by fitting absorbance versus inhibitor concentration.
Compounds diluted in DMSO were added to 384-well plates. Enzyme solution was added. After a 20 min incubation period, the reaction was initiated by addition of PI(3,4,5)P3-diC8. Final compound concentrations ranged from 50 nM to 950 μM. Final reaction concentrations for the PI(3,4,5)P3-diC8 substrate and the enzyme were 52 μM and 10 nM respectively. The reaction was quenched after 10 min by adding Malachite BioMol Green (Enzo Lifesciences, PA, USA). Plates were then incubated for 30 min at room temperature. Absorbance (620 nm) was measured using a SpectraMax Me5 Microplate Reader (Molecular Devices, LLC, USA). IC50 values were calculated by fitting absorbance versus inhibitor concentration and are reported as the geometric mean and standard error of mean with the number of repeats (n) indicated. Compounds and activities are as depicted in tables 1 and 2 above.

[1] = molecular target: T2, HiBit-labeled full length SHIP1 protein (Homo sapiens, UniProt Q92835); assay: Cellular thermal shift assay (SplitLuc CETSA), compound dose response; assay type: cell-based; conditions: HMC3/HiBit-INPP5D cells, 60 min, heated at 44.2° C.
T2 construct: thermal stability of a HiBit-labeled full length SHIP1 protein in intact cells; expressed in transfected cells; host or cells: HMC3 (stably transfected)
T2 sequence (Q92835 1-1189): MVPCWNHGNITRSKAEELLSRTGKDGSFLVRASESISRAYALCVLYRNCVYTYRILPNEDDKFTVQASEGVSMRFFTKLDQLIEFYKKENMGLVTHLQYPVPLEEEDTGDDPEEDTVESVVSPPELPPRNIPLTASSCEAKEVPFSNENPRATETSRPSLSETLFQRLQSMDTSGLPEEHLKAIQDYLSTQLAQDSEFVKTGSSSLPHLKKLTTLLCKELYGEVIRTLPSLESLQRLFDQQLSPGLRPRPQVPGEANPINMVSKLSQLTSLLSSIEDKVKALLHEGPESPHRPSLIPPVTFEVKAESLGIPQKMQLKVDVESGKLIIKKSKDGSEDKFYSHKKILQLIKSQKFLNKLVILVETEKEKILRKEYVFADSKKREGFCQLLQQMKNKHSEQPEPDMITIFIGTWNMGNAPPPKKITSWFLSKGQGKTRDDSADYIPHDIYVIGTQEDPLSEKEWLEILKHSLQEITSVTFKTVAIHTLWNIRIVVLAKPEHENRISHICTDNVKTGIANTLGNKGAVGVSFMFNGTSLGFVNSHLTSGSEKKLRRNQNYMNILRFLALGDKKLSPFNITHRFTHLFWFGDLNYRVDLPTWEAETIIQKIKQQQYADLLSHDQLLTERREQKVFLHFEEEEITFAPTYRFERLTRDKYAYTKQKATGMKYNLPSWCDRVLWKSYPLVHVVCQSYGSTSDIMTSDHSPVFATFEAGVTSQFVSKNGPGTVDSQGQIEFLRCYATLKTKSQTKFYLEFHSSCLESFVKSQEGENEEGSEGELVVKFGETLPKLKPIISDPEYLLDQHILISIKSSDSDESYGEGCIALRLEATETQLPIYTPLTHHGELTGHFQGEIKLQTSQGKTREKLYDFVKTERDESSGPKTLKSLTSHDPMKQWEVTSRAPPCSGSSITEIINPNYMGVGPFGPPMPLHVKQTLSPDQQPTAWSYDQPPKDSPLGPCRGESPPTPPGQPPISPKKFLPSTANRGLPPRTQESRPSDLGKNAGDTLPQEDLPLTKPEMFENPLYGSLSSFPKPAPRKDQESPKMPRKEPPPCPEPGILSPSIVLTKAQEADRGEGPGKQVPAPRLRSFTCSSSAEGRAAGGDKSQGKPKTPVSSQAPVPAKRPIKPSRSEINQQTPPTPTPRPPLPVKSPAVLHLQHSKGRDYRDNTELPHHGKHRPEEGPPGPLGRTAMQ
Method: Cellular thermal shift assay (CETSA). […] This assay was run in the following two formats with HMC3/HiBit-INPP5D stably transfected cells.
2. Compound dose response: run at target Tm (44.2° C. for SHIP1) with compound dosing from 80 uM or 100 uM with 1:3 serial dilutions to generate an 8 point curve. Cells were treated for 60 min before being heated at target Tm for 3 min before luminescence detection. An AC50 was calculated using a four-parameter logistic curve regression model with change at highest concentration noted when difference from control >3SD, otherwise AC50 marked as “nc” for not calculated.
See Martinez et al. (2018) Sci Rep 8: p. 9472; Oh-Hashi et al. (2017) Biochem Biophys Rep 12: pp. 40-45. This assay was run in the following two formats with HMC3/HiBit-INPP5D stably transfected cells.
Compound dose response: run at target Tm (44.2° C. for SHIP1) with compound dosing from 80 uM or 100 uM with 1:3 serial dilutions to generate an 8-point curve. Cells were treated for 60 min before being heated at target Tm for 3 min before luminescence detection. The concentration that induced a half-maximum response (AC50) was calculated using a four-parameter logistic curve regression model with change at highest concentration noted when difference from control >3SD.

BV2 cells = assay: pHrodo-myelin phagocytosis/cell health assay, BV2 cells; assay type: cell-based; conditions: Mus musculus, BV-2, compound 48 hrs, 60 μM to 3 nM, (n) in cell
Method: pHrodo-myelin phagocytosis/cell health assay with microglial cells. This 384-well plate high content imaging assay was developed to quantify phagocytosis and cell health simultaneously using either BV2 or HMC3 immortalized microglial cell lines or primary microglia isolated from mouse brain. Cells were cultured in DMEM GlutaMax media (ThermoFisher) containing 10% FBS and Pen-Strep in 37° C. 5% CO2 incubator.
Day 1: Cells were plated (Corning Falcon 384 well Optilux Black and clear bottom plates for imaging) with BV2 at 400 cells/45 μl/well, HMC3 at 600 cells/45 μl/well, or primary at 2000 cell/45 μl/well.
Day 2: Cells were treated with 10× serially diluted compounds in a dose range of 60 μM to 3 nM for 48 hrs at 37° C.
Day 3: Cells were seeded with pHrodo-myelin (for total 20 hrs) 24 hrs after starting compound treatment. The pHrodo-myelin stocks were at 1 mg/ml (protein equivalent) stored in −20° C. or −80° C. freezer. Stocks were thawed and diluted with culture media into 10× seeding solution (50 μg/ml) and added 5 μl/well to 384 well cell plate.
Day 4: Cell staining and imaging. Nuclear staining solution was prepared by adding 1 μl of 10 mg/mL Hoechst-33342 to every 1 ml culture media that will be added to cell plate at 20 μl/well. The final concentration of Hoechst-33342 to cells was about 2.5 μg/ml. Cell plates were incubated for >30 min at 37° C. before imaging. Cell plates were scanned with an ArrayScan automatic high content imaging system using a 10× objective lens, 4 fields/well collected. Three measurements were obtained 1) mean total phagocytosis spot intensity per cell, 2) total cell counts per well, and 3) mean average nuclear intensity per cell for cell health.
This 384-well plate high content imaging assay was developed to quantify phagocytosis and cell health simultaneously using either BV2 or HMC3 immortalized microglial cell lines or primary microglia isolated from mouse brain. Cells were cultured in DMEM GlutaMax media (ThermoFisher) containing 10% FBS and Pen-Strep in 37° C. 5% CO2 incubator. Day 1: Cells were plated (Corning Falcon 384 well Optilux Black and clear bottom plates for imaging) with BV2 at 400 cells/45 μl/well, HMC3 at 600 cells/45 μl/well, or primary at 2000 cell/45 μl/well. Day 2: Cells were treated with 10× serially diluted compounds in a dose range of 60 μM to 3 nM for 48 hrs at 37° C. Day 3: Cells were seeded with pHrodo-myelin (for total 20 hrs) 24 hrs after starting compound treatment. The pHrodo-myelin stocks were at 1 mg/ml (protein equivalent) stored in −20° C. or −80° C. freezer. Stocks were thawed and diluted with culture media into 10× seeding solution (50 μg/ml) and added 5 μl/well to 384 well cell plate. Day 4: Cell staining and imaging. Nuclear staining solution was prepared by adding 1 μl of 10 mg/mL Hoechst-33342 to every 1 ml culture media that will be added to cell plate at 20 μl/well. The final concentration of Hoechst-33342 to cells was about 2.5 μg/ml. Cell plates were incubated for >30 min at 37° C. before imaging. Cell plates were scanned with an ArrayScan automatic high content imaging system using a 10× objective lens, 4 fields/well collected. Three measurements were obtained 1) mean total phagocytosis spot intensity per cell, 2) total cell counts per well, and 3) mean average nuclear intensity per cell for cell health.

Row | SMILES | IC50 (SHIP1) [µM] | CETSA Min Inhibition (%) [1] [%] | EC50 (BV2 cells) [µM]
1 | CC(C)(C)OC(=O)N1CCC(n2cc(-c3cncc(OCc4ccc(Cl)cc4)c3)cn2)CC1 [Compound 6, tert-butyl 4-(4-(5-((4-chlorobenzyl)oxy)pyridin-3-yl)-1H-pyrazol-1-yl)piperidine-1-carboxylate] | 137 |  | 
2 | Clc1ccc(COc2cncc(-c3cnn(C4CCNCC4)c3)c2)cc1 [Compound 11, 3-((4-chlorobenzyl)oxy)-5-(1-(piperidin-4-yl)-1H-pyrazol-4-yl)pyridine hydrochloride] | 109 |  | 
3 | c1ccc(COc2cncc(-c3cnn(C4CCNCC4)c3)c2)cc1 [Compound 14, 3-(benzyloxy)-5-(1-(piperidin-4-yl)-1H-pyrazol-4-yl)pyridine trifluoroacetate] | 208 |  | 
4 | COC(=O)N1CCC(n2cc(-c3cncc(OCc4ccccc4Cl)c3)cn2)CC1 [Compound 17, Methyl 4-(4-(5-((2-chlorobenzyl)oxy)pyridin-3-yl)-1H-pyrazol-1-yl)piperidine-1-carboxylate] | 133 |  | 
5 | O=C(OCc1ccccc1)N1CCC(n2cc(-c3cncc(OCc4ccccc4Cl)c3)cn2)CC1 [Compound 19, Benzyl 4-(4-(5-((2-chlorobenzyl)oxy)pyridin-3-yl)-1H-pyrazol-1-yl)piperidine-1-carboxylate] |  | 72.1 | 0.958

Second part, the compound after the results:

Row | IC50 (SHIP1) [µM] | CETSA Min Inhibition (%) [1] [%] | EC50 (BV2 cells) [µM] | SMILES
6 | 18.1 |  |  | CC(C)(C)OC(=O)N1CCC(n2cc(-c3cncc(OCc4ccc(Cl)cc4Cl)c3)cn2)CC1 [Compound 8, tert-butyl 4-(4-(5-((2,4-dichlorobenzyl)oxy)pyridin-3-yl)-1H-pyrazol-1-yl)piperidine-1-carboxylate]
7 | 29.7 |  |  | Brc1ccc(COc2cncc(-c3cnn(C4CCNCC4)c3)c2)cc1 [Compound 12, 3-((4-bromobenzyl)oxy)-5-(1-(piperidin-4-yl)-1H-pyrazol-4-yl)pyridine hydrochloride]
8 | 99.2 |  |  | O=C(c1ccccc1)N1CCC(n2cc(-c3cncc(OCc4ccccc4Cl)c3)cn2)CC1 [Compound 18, (4-(4-(5-((2-chlorobenzyl)oxy)pyridin-3-yl)-1H-pyrazol-1-yl)piperidin-1-yl)(phenyl)methanone]
